Broadly, the IC50 is the concentration needed to halve the response being measured.

Counter-ions that a name gives are not always drawn. Like-named read-outs stand apart in the source and are kept apart here.

Drawing on US20050137220A1 (Pharmacia Corporation, priority 2003, published 2005), this text covers mortality, development of arthritis and IC50 for two molecules.

Assay [1] deals with p38. Particulars: murine model of endotoxin-induced shock; cited from earlier work.
The subject of assay [2] is p38. Conditions: mouse collagen-induced arthritis; cited from earlier work.
The test system of assay [3] is p38. Conditions: rat adjuvant arthritis; cited from earlier work.
The target of the next assay is MK-2 (Homo sapiens, UniProt P49137). Kind of assay: Determination of MK-2 IC50 (phosphorylation of HSP-peptide, anion exchange resin capture assay). It is filed as biochemical. Particulars: additional values are replicate IC50 experiments; mixture of stereoisomers implied unless otherwise noted; read-out: MK-2 Avg. IC50.
The subject of the next assay is U937 cells. The assay is described as follows: U937 Cell TNFα Release Assay. It is filed as cell-based, human. Conditions: Homo sapiens, U-937, 4 h, LPS-stimulated differentiated U937 cells, TNFα by ELISA; mixture of stereoisomers implied unless otherwise noted; read-out: TNF Release Assay Avg. IC50.

MK-2, sequence (P49137 whole entry, species assumed): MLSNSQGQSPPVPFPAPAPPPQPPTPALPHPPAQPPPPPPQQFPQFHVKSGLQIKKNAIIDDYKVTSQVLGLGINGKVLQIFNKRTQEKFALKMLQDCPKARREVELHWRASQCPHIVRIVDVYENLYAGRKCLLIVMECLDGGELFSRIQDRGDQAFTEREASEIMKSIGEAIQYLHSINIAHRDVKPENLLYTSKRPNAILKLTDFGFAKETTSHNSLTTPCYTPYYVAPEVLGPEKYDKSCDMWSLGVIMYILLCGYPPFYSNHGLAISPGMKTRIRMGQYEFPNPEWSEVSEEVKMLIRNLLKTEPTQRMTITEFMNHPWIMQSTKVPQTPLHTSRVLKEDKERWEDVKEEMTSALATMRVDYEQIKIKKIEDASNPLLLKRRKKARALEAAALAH

On to `C[S+]([O-])c1ccc(-c2nc(-c3ccncc3)c(-c3ccc(F)cc3)[nH]2)cc1` (centres unmarked) [SB203580], for which the mortality entry in the assay on p38 [1] is on record as “reduce mortality”. Besides, the development of arthritis result in the assay with p38 [2] and in the assay with p38 [3] was “inhibit the development” throughout.

As to `CCOC(=O)COc1ccc2[nH]c3c(c2c1)CCNC3C(=O)O` (stereo not drawn) [Example 53, 6-(2-ethoxy-2-oxoethoxy)-2,3,4,9-tetrahydro-1H-beta-carboline-1-carboxylic acid trifluoroacetate hydrate], the IC50 on MK-2 is 8 µM; with U937 cells, greater than 100 µM.
